From patent US12655116B2, “Substituted isophthalic acid diamides” (Bayer Aktiengesellschaft, priority 2020, dated 2026)

What was measured:
VIOTR [1] = assay: Pre-emergence herbicidal action against VIOTR; assay type: in vivo, Viola tricolor
Method in brief: (§1)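 Herbicidal effect was assessed 3 weeks after treatment by visual comparison with untreated controls, 100% denoting dead plants. Aqueous WP or EC preparations had been applied at 600 to 800 l/ha with 0.2% wetting agent to the soil covering freshly sown seeds.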

SETVI [2] = assay: Post-emergence herbicidal action against SETVI; assay type: in vivo, Setaria viridis
Method in brief: (§2)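 Herbicidal effect was scored visually in percent after about 3 weeks in the greenhouse. Plants had been raised in sandy loam and treated post-emergence at the one-leaf stage with formulated compound at 600 to 800 l/ha water plus 0.2% wetting agent.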

VERPE [3] = assay: Post-emergence herbicidal action against VERPE; assay type: in vivo, Veronica persica; details: 20 g/ha
Method in brief: as §2

PHBPU [4] = assay: Pre-emergence herbicidal action against PHBPU; assay type: in vivo, Pharbitis purpurea
Method in brief: as §1

ECHCG [5] = assay: Pre-emergence herbicidal action against ECHCG; assay type: in vivo, Echinochloa crus-galli; details: 80 g/ha
Method in brief: as §1

AVEFA [6] = assay: Post-emergence herbicidal action against AVEFA; assay type: in vivo, Avena fatua; details: visual assessment about 3 weeks after treatment, 100% = plants have died, 0% = like control plants
Method in brief: as §2

DIGSA [7] = assay: Pre-emergence herbicidal action against DIGSA; assay type: in vivo, Digitaria sanguinalis
Method in brief: as §1

DIGSA [8] = assay: Post-emergence herbicidal action against DIGSA; assay type: in vivo, Digitaria sanguinalis; details: for Post-emergence action against DIGSA in %: 5 g/ha; for Post-emergence action against DIGSA: 20 g/ha
Method in brief: as §2

SETVI [9] = assay: Pre-emergence herbicidal action against SETVI; assay type: in vivo, Setaria viridis
Method in brief: as §1

ABUTH [10] = assay: Post-emergence herbicidal action against ABUTH; assay type: in vivo, Abutilon theophrasti; details: visual assessment about 3 weeks after treatment vs untreated controls
Method in brief: as §2

ALOMY [11] = assay: Pre-emergence herbicidal action against ALOMY; assay type: in vivo, Alopecurus myosuroides
Method in brief: as §1

POLCO = assay: Pre-emergence herbicidal action against POLCO; assay type: in vivo, Polygonum convolvulus; details: dosage 80 g/ha
Method in brief: as §1

AMARE [12] = assay: Pre-emergence herbicidal action against AMARE; assay type: in vivo, Amaranthus retroflexus
Method in brief: as §1

AMARE [13] = assay: Post-emergence herbicidal action against AMARE; assay type: in vivo, Amaranthus retroflexus; details: 20 g/ha, visual assessment about 3 weeks after treatment, 100% = plants have died, 0% = like control plants
Method in brief: as §2

ECHCG [14] = assay: Post-emergence herbicidal action against ECHCG; assay type: in vivo, Echinochloa crus-galli
Method in brief: as §2

AVEFA [15] = assay: Pre-emergence herbicidal action against AVEFA; assay type: in vivo, Avena fatua; details: pre-emergence
Method in brief: as §1

VERPE [16] = assay: Pre-emergence herbicidal action against VERPE; assay type: in vivo, Veronica persica
Method in brief: as §1

ABUTH [17] = assay: Pre-emergence herbicidal action against ABUTH; assay type: in vivo, Abutilon theophrasti
Method in brief: as §1

ALOMY [18] = assay: Post-emergence herbicidal action against ALOMY; assay type: in vivo, Alopecurus myosuroides; details: visual assessment about 3 weeks after treatment vs untreated controls
Method in brief: as §2

PHBPU [19] = assay: Post-emergence herbicidal action against PHBPU; assay type: in vivo, Pharbitis purpurea
Method in brief: as §2

MATIN [20] = assay: Pre-emergence herbicidal action against MATIN; assay type: in vivo, Matricaria inodora
Method in brief: as §1

VIOTR [21] = assay: Post-emergence herbicidal action against VIOTR; assay type: in vivo, Viola tricolor
Method in brief: as §2

MATIN [22] = assay: Post-emergence herbicidal action against MATIN; assay type: in vivo, Matricaria inodora
Method in brief: as §2

[23] = 80 g/ha, pre-emergence, scored visually after 3 weeks vs untreated controls (100% = plants have died, 0% = like control plants)
[24] = 20 g/ha, scored visually after 3 weeks vs untreated controls, 100% = plants have died, 0% = like control plants
[25] = 80 g/ha, scored visually after 3 weeks vs untreated controls (100% = plants have died, 0% = like control plants)
[26] = dosage 20 g/ha, scored visually after 3 weeks vs untreated controls, 100% = plants have died, 0% = like control plants
[27] = Tripleurospermum inodorum, 504 h, dosage 20 g/ha

CCn1nnnc1NC(=O)c1ccc(C(F)(F)F)c(C(=O)NCCOC)c1C [Example 2-34]
90%: Post-emergence action against SETVI in % (SETVI [2]; dosage 20 g/ha) | Pre-emergence action against ECHCG in % (ECHCG [5]) | Post-emergence action against ABUTH in % (ABUTH [10]; dosage 5 g/ha) | Post-emergence action against ABUTH in % (ABUTH [10]; dosage 20 g/ha) | Pre-emergence action against ALOMY (herbicidal activity) (ALOMY [11]; [23]) | Pre-emergence action against POLCO in % (POLCO) | Pre-emergence action against AMARE in % (AMARE [12]; [24]) | Post-emergence action against ECHCG in % (ECHCG [14]; dosage 5 g/ha) | Pre-emergence action against AVEFA in % (AVEFA [15]; 80 g/ha) | Pre-emergence action against VERPE in % (VERPE [16]; dosage 20 g/ha) | Pre-emergence action against VERPE in % (VERPE [16]; dosage 80 g/ha) | Post-emergence action against PHBPU in % (PHBPU [19]; dosage 5 g/ha) | Pre-emergence action against MATIN in % (MATIN [20]; dosage 20 g/ha)
80%: Post-emergence action against SETVI in % (SETVI [2]; dosage 5 g/ha) | Post-emergence action against VERPE in % (VERPE [3]) | Pre-emergence action against PHBPU in % (PHBPU [4]; dosage 80 g/ha) | Post-emergence action at 5 g/ha against AVEFA in % (AVEFA [6]; 5 g/ha) | Post-emergence action at 20 g/ha against AVEFA in % (AVEFA [6]; 20 g/ha) | Post-emergence action against DIGSA in % (DIGSA [8]) | Pre-emergence action against ALOMY (ALOMY [11]; 20 g/ha, scored visually after 3 weeks, 100% = plants have died, 0% = like control plants) | Pre-emergence action against ABUTH (herbicidal activity in percent) (ABUTH [17]; [26])
100%: Pre-emergence action against VIOTR in % (VIOTR [1]; dosage 20 g/ha) | Pre-emergence action against VIOTR in % (VIOTR [1]; dosage 80 g/ha) | Pre-emergence action against DIGSA in % (DIGSA [7]; dosage 20 g/ha) | Pre-emergence action against DIGSA in % (DIGSA [7]; dosage 80 g/ha) | Post-emergence action against DIGSA (DIGSA [8]) | Pre-emergence action against SETVI in % (SETVI [9]; dosage 20 g/ha) | Pre-emergence action against SETVI in % (SETVI [9]; dosage 80 g/ha) | Pre-emergence action against AMARE in % (AMARE [12]; [25]) | Post-emergence action at 20 g/ha against AMARE in % (AMARE [13]) | Post-emergence action against ECHCG in % (ECHCG [14]; dosage 20 g/ha) | Pre-emergence action against ABUTH (herbicidal activity) (ABUTH [17]; [25]) | Post-emergence action against ALOMY in % (ALOMY [18]; dosage 20 g/ha) | Post-emergence action against PHBPU in % (PHBPU [19]; dosage 20 g/ha) | Pre-emergence action against MATIN in % (MATIN [20]; dosage 80 g/ha)

CCn1nnnc1NC(=O)c1ccc(C(F)(F)F)c(C(=O)NC(C)C2CC2)c1C1CC1 (centres unmarked) [Example 2-292]
100%: Pre-emergence action against VIOTR in % (VIOTR [1]; dosage 20 g/ha) | Pre-emergence action against VIOTR in % (VIOTR [1]; dosage 80 g/ha) | Pre-emergence action against ECHCG in % (ECHCG [5]) | Pre-emergence action against DIGSA in % (DIGSA [7]; dosage 20 g/ha) | Pre-emergence action against DIGSA in % (DIGSA [7]; dosage 80 g/ha) | Pre-emergence action against SETVI in % (SETVI [9]; dosage 80 g/ha) | Pre-emergence action against POLCO in % (POLCO) | Pre-emergence action against AMARE in % (AMARE [12]; [24]) | Pre-emergence action against AMARE in % (AMARE [12]; [25]) | Pre-emergence action against VERPE in % (VERPE [16]; dosage 80 g/ha) | Pre-emergence action against ABUTH (herbicidal activity) (ABUTH [17]; [25]) | Pre-emergence action against ABUTH (herbicidal activity in percent) (ABUTH [17]; [26]) | Pre-emergence action against MATIN in % (MATIN [20]; dosage 80 g/ha)
90%: Pre-emergence action against PHBPU in % (PHBPU [4]; dosage 80 g/ha) | Post-emergence action against DIGSA in % (DIGSA [8]) | Post-emergence action against DIGSA (DIGSA [8]) | Pre-emergence action against ALOMY (herbicidal activity) (ALOMY [11]; [23]) | Post-emergence action against MATIN in % (MATIN [22]; dosage 20 g/ha) | Post-emergence action at 20 g/ha against AMARE in % (AMARE [13]) | Pre-emergence action against AVEFA in % (AVEFA [15]; 80 g/ha) | Pre-emergence action against VERPE in % (VERPE [16]; dosage 20 g/ha) | Pre-emergence action against MATIN in % (MATIN [20]; dosage 20 g/ha)
80%: Post-emergence action against SETVI in % (SETVI [2]; dosage 20 g/ha) | Post-emergence action against VERPE in % (VERPE [3]) | Pre-emergence action against PHBPU in % (PHBPU [4]; dosage 20 g/ha) | Post-emergence action at 20 g/ha against AVEFA in % (AVEFA [6]; 20 g/ha) | Post-emergence action against VIOTR in % (VIOTR [21]; 20 g/ha) | Post-emergence action against ABUTH in % (ABUTH [10]; dosage 20 g/ha) | Post-emergence action against MATIN in % (MATIN [22]; dosage 5 g/ha) | Post-emergence action against ECHCG in % (ECHCG [14]; dosage 5 g/ha) | Post-emergence action against ECHCG in % (ECHCG [14]; dosage 20 g/ha) | Post-emergence action against ALOMY in % (ALOMY [18]; dosage 20 g/ha)

CCn1nnnc1NC(=O)c1ccc(C(F)F)c(C(=O)NC(C)C)c1C [Example 2-345]
100%: pest or weed control at 80 g/ha (VIOTR [1]; Viola tricolor, 504 h, dosage 80 g/ha) | pest or weed control at 20 g/ha (SETVI [2]; Setaria viridis, 504 h, dosage 20 g/ha) | pest or weed control at 80 g/ha (SETVI [9]; Setaria viridis, 504 h, dosage 80 g/ha) | pest or weed control at 20 g/ha (MATIN [22]; [27]) | pest or weed control at 20 g/ha (AMARE [12]; Amaranthus retroflexus, 504 h, 20 g/ha, scored visually after 3 weeks vs untreated controls, 100% = plants have died, 0% = like control plants) | pest or weed control at 80 g/ha (AMARE [12]; Amaranthus retroflexus, 504 h, 80 g/ha, scored visually after 3 weeks vs untreated controls, 100% = plants have died, 0% = like control plants) | pest or weed control at 20 g/ha (AMARE [13]; Amaranthus retroflexus, 504 h) | pest or weed control at 80 g/ha (VERPE [16]; Veronica persica, 504 h, dosage 80 g/ha) | pest or weed control at 80 g/ha (ABUTH [17]; Abutilon theophrasti, 504 h, 80 g/ha, scored visually after 3 weeks vs untreated controls (100% = plants have died, 0% = like control plants)) | pest or weed control at 20 g/ha (PHBPU [19]; Ipomoea purpurea, 504 h, dosage 20 g/ha) | pest or weed control at 20 g/ha (MATIN [20]; [27]) | pest or weed control at 80 g/ha (MATIN [20]; Tripleurospermum inodorum, 504 h, dosage 80 g/ha)
90%: pest or weed control at 80 g/ha (ECHCG [5]; Echinochloa crus-galli, 504 h) | pest or weed control at 5 g/ha (VIOTR [21]; Viola tricolor, 504 h, 5 g/ha) | pest or weed control at 20 g/ha (VIOTR [21]; Viola tricolor, 504 h, 20 g/ha) | pest or weed control at 5 g/ha (ABUTH [10]; Abutilon theophrasti, 504 h, dosage 5 g/ha) | pest or weed control at 20 g/ha (ABUTH [10]; Abutilon theophrasti, 504 h, dosage 20 g/ha) | pest or weed control at 5 g/ha (MATIN [22]; Tripleurospermum inodorum, 504 h, dosage 5 g/ha) | pest or weed control at 80 g/ha (POLCO; Fallopia convolvulus, 504 h) | pest or weed control at 20 g/ha (ABUTH [17]; Abutilon theophrasti, 504 h, dosage 20 g/ha, scored visually after 3 weeks vs untreated controls, 100% = plants have died, 0% = like control plants, read-out: Pre-emergence action against ABUTH (herbicidal activity in percent))
80%: pest or weed control at 20 g/ha (VIOTR [1]; Viola tricolor, 504 h, dosage 20 g/ha) | pest or weed control at 5 g/ha (SETVI [2]; Setaria viridis, 504 h, dosage 5 g/ha) | pest or weed control at 20 g/ha (VERPE [3]; Veronica persica, 504 h) | pest or weed control at 80 g/ha (PHBPU [4]; Ipomoea purpurea, 504 h, dosage 80 g/ha) | pest or weed control at 20 g/ha (AVEFA [6]; Avena fatua, 504 h, 20 g/ha) | pest or weed control at 80 g/ha (ALOMY [11]; Alopecurus myosuroides, 504 h, 80 g/ha, pre-emergence, scored visually after 3 weeks vs untreated controls (100% = plants have died, 0% = like control plants)) | pest or weed control at 20 g/ha (ECHCG [14]; Echinochloa crus-galli, 504 h, dosage 20 g/ha) | pest or weed control at 80 g/ha (AVEFA [15]; Avena fatua, 504 h, 80 g/ha) | pest or weed control at 20 g/ha (AVEFA [15]; Avena fatua, 504 h, 20 g/ha, scored visually after 3 weeks, 100% = plants have died, 0% = like control plants) | pest or weed control at 5 g/ha (ALOMY [18]; Alopecurus myosuroides, 504 h, dosage 5 g/ha) | pest or weed control at 20 g/ha (ALOMY [18]; Alopecurus myosuroides, 504 h, dosage 20 g/ha)
